Data from the SangsterLogP compilation.

Test: method code SF-AS, from DOI: 10.1002/qsar.19830020303
Conditions: not given

Structure (SMILES) | logP
Cc1cc(C)nc(C)c1 | 2.01

Test: method code SF, from DOI: 10.1002/qsar.19830020303
Conditions: not given

Structure (SMILES) | logP
NS(=O)(=O)c1cccnc1 | -0.49
CC(=O)Nc1ccncc1 | 0.5
CSc1ccc2ccccc2n1 | 3.04
COC(=O)c1cnccn1 | -0.17
NC(=O)c1ccncc1 | -0.28
NC(=O)c1ccc(Cl)nn1 | 0
Nc1ccc(Cl)nn1 | 0.35
NC(=S)c1cccnc1 | 0.67
CN(C)c1cccnn1 | 0.29
CN(C)C(=O)c1cccnc1 | -0.48
CCOC(=O)c1ccc(Cl)nn1 | 0.12
NNC(=O)c1ccc2ncccc2c1 | 0.35
Cc1cc(NN)ncn1 | 0.62
CS(=O)(=O)c1ccc2ncccc2c1 | 0.7
CN(C)c1ccnnc1 | -0.09
Cc1cc(N)nc(C)n1 | 0.39
NS(=O)(=O)c1ccc2ncccc2c1 | 0.56
CC(=O)Nc1ncccn1 | -0.75
NC(=S)c1ncccn1 | -0.34
Cc1cc(N)ncn1 | 0.19
CN(C)c1ccc(Cl)nn1 | 0.98

Same assay, conditions: pH 7.4

Structure (SMILES) | logD
Oc1cnc2ccccc2c1 | 2.08

Test: not given
Conditions: not given

Structure (SMILES) | logP
COC(=O)c1cnc2ccccc2c1 | 2.25
COc1nc(-c2ccccc2)c2ccccc2n1 | 3.5
N#Cc1ccc2ccccc2n1 | 1.6
O=Cc1ccc2ccccc2n1 | 2.14
NC(=O)c1cnc2ccccc2c1 | 1.06
Nc1ccnc2c([N+](=O)[O-])cccc12 | 1.31
CN(C)c1nnc(-c2ccccc2)c2ccccc12 | 3.22
O=S(=O)(c1ccccc1)c1cccc2cccnc12 | 2.33
NC(=O)c1cnc2ccccc2n1 | 0.98
Nc1ncnc2ccccc12 | 1.28
CSc1nc(C)cc(C)n1 | 1.86
Clc1ccc2cncnc2c1 | 1.74
CSc1ncc2ccccc2n1 | 2.5
Cc1cnnc2ccc(Cl)cc12 | 1.96
Ic1ccc2ccccc2n1 | 3.04
O=[N+]([O-])c1cc2ccccc2nn1 | 0.73
CCOC(=O)c1cc2ccc(CC)cc2nn1 | 2.31
Cc1cccc2c(N)cnnc12 | 1.57
Nc1cc2ccccc2nn1 | 1
CCCCOc1cccnn1 | 1.8

Structure (SMILES) | logP
CC(C)(C)c1ccccn1 | 2.4
CC(=O)c1cc2ccccc2nn1 | 1.44
Nc1nc(-c2ccccc2)c2ccccc2n1 | 2.95
c1ccc(-c2ncncn2)cc1 | 1.93
N#Cc1cnc2ccccc2c1 | 1.57
Nc1cnnc2ccccc12 | 1.04
c1ccc(-c2ncnc3ccccc23)cc1 | 2.71
CNc1nc(-c2ccccc2)c2ccccc2n1 | 3.58
CN(C)c1ccccn1 | 1.43
CSc1ccc(SC)nn1 | 1.85
NNc1ncnc2ccccc12 | 1.67
CCOC(=O)c1ccc2ncccc2c1 | 2.64
CN(C)c1ccc2ccccc2n1 | 2.81
c1ccc2c(NC3CCCC3)ncnc2c1 | 2.61
COc1nnc(OC)c2ccccc12 | 2.22
CC(=O)Nc1ccc2cccnc2c1 | 1.55
CSc1ccccn1 | 1.71
O=C(c1ccccc1)c1ccccn1 | 1.96
COc1ccc(Cl)nn1 | 0.89
c1ccc(Nc2ccccn2)cc1 | 2.75

Structure (SMILES) | logP
COc1cnnc2ccccc12 | 1.41
Cc1nc(-c2ccccc2)c2ccccc2n1 | 3.1
Clc1cc2ccccc2nn1 | 1.57
c1ccc(Oc2ccccn2)cc1 | 2.45
c1ccc2c(N3CCCCC3)ncnc2c1 | 2.92
Cc1cccnc1 | 1.19
COc1cc(C)nc2ccccc12 | 2.81
CC(=O)c1cnc2ccccc2c1 | 1.76
c1ccc(-c2nnco2)cc1 | 1.31
c1ccc(Sc2cccnc2)cc1 | 3.15
COc1ccnc2c([N+](=O)[O-])cccc12 | 1.92
Cc1cnnc2cc(Cl)ccc12 | 1.98
Brc1cc2ccccc2nn1 | 1.72
Nc1nncc2ccccc12 | 0.82
CCCOc1cncc(C)n1 | 2.29
O=CNc1cccc2cccnc12 | 1.8
CN(C)C(=O)c1cnc2ccccc2c1 | 0.99
CN(C)c1ccc(N(C)C)nn1 | 0.99
COc1ncnc2ccccc12 | 1.97
